Measured values: ChEMBL document CHEMBL1123439, “Folate analogues. 26. Syntheses and antifolate activity of 10-substituted derivatives of 5,8-dideazafolic acid and of the poly-gamma-glutamyl metabolites of N10-propargyl-5,8-dideazafolic acid (PDDF)” (J Med Chem, 1986)

Columns and labels:
L1210 [1] = assay: Inhibition of thymidylate synthesis in L1210 cells at 100 uM; assay type: functional; conditions: Mus musculus
Lacticaseibacillus casei [2] = assay: Inhibitory activity against Lactobacillus casei MTX-resistant; assay type: functional, organism-based
Enterococcus faecium [3] = assay: Inhibitory activity against Streptococcus faecium ATCC 8043; assay type: functional, organism-based
Lacticaseibacillus casei [4] = assay: Inhibitory activity against Lactobacillus casei ATCC 7469; assay type: functional, organism-based
Thymidylate synthase = target: T1, Thymidylate synthase (Lactobacillus casei, UniProt P00469); assay: Inhibitory activity against thymidylate synthase of Lactobacillus casei; parameters: species or system Lacticaseibacillus casei
T1 sequence (P00469 whole entry): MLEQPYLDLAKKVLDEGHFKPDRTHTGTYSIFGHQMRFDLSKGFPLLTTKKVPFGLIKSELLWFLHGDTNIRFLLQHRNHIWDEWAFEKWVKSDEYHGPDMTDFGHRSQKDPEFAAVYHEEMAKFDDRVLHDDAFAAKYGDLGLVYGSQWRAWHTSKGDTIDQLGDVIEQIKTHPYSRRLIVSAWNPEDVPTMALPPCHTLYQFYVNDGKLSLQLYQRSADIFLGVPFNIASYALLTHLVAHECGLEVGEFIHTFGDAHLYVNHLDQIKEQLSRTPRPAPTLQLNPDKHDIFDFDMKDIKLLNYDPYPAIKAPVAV

L1210 [5] = assay: Inhibition of thymidylate synthesis in permeabilised cells; assay type: functional, cell-based; conditions: Mus musculus
L1210 [6] = assay: Inhibition of thymidylate synthesis in L1210 intact cells at 10 uM; assay type: functional; conditions: Mus musculus
Enterococcus faecium [7] = assay: Inhibitory activity against Streptococcus faecium MTX-resistant; assay type: functional, organism-based
Dihydrofolate reductase = Dihydrofolate reductase (Lactobacillus casei, UniProt P00381); assay: Inhibitory activity against dihydrofolate reductase of Lactobacillus casei; parameters: species or system Lacticaseibacillus casei
Chain of Dihydrofolate reductase (P00381 whole entry): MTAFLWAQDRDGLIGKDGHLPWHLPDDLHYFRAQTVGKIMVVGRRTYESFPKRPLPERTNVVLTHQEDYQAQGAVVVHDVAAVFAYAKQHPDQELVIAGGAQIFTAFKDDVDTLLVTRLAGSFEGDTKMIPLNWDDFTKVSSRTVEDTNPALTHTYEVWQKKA

SMILES | inhibition at 100 µM (L1210 [1]) [%] | IC50 (Lacticaseibacillus casei [2]) [µM] | IC50 (Enterococcus faecium [3]) [µM] | IC50 (Lacticaseibacillus casei [4]) [nM] | IC50 (Thymidylate synthase) [µM] | IC50 (L1210 [5]) [µM] | inhibition at 10 µM (L1210 [6]) [%] | IC50 (Enterococcus faecium [7]) [µM] | IC50 (Dihydrofolate reductase) [µM]
C#CN(Cc1ccc2nc(N)nc(O)c2c1)c1ccc(C(=O)NC(CCC(=O)O)C(=O)NC(CCC(=O)NC(CCC(=O)NC(CCC(=O)NC(CCC(=O)O)C(=O)O)C(=O)O)C(=O)O)C(=O)O)cc1 (stereo unspecified) | 8 | > 20 | > 0.08 | 0.35 | 0.013 | 0.002 | 0 | > 0.8 | 2.9
C#CN(Cc1ccc2nc(N)nc(O)c2c1)c1ccc(C(=O)NC(CCC(=O)NC(CCC(=O)NC(CCC(=O)O)C(=O)O)C(=O)O)C(=O)O)cc1 (stereo unspecified) | 8 | 1.1 | 0.034 | 0.08 | 0.014 | 0.002 | 0 | > 0.8 | 5.3
C#CN(Cc1ccc2nc(N)nc(O)c2c1)c1ccc(C(=O)NC(CCC(=O)O)C(=O)NC(CCC(=O)O)C(=O)O)cc1 (stereo unspecified) | 32 | 0.28 | 0.00036 | 0.05 | – | 0.006 | 0 | 0.125 | –
C#CN(Cc1ccc2nc(N)nc(O)c2c1)c1ccc(C(=O)NC(CCC(=O)O)C(=O)NC(CCC(=O)NC(CCC(=O)NC(CCC(=O)O)C(=O)O)C(=O)O)C(=O)O)cc1 (stereo unspecified) | 3 | > 20 | 0.075 | 0.18 | 0.014 | 0.0014 | 0 | > 0.8 | 3.7
C#CN(Cc1ccc2nc(N)nc(O)c2c1)c1ccc(C(=O)NC(CCC=O)C(=O)O)cc1 (stereo unspecified) | 87 | – | 0.00013 | 0.4 | – | 0.03 | 55 | 0.02 | –
CC#CCN(Cc1ccc2nc(N)nc(O)c2c1)c1ccc(C(=O)N[C@@H](CCC(=O)O)C(=O)O)cc1 | – | > 20 | 0.0067 | 86 | 4.4 | 14 | – | 1.6 | 250
Nc1nc(O)c2cc(CN(CC3CC3)c3ccc(C(=O)N[C@@H](CCC(=O)O)C(=O)O)cc3)ccc2n1 | – | > 20 | 0.0026 | 8.1 | 12 | 82 | – | 1.5 | 2.3
CN(Cc1cnc2nc(N)nc(N)c2n1)c1ccc(C(=O)N[C@@H](CCC(=O)O)C(=O)O)cc1 [METHOTREXATE] | 98 | > 1000 | 0.0003 | 0.03 | – | 60 | 95 | 3.9 | –
